Laboratory results as given in PMC10746543, “Design principles for cyclin K molecular glue degraders” (Nature Chemical Biology, 2023).
Values joined by “and” are separate entries in the source; they are usually repeats but may differ in a detail not shown here. Equal values may be shown once. Read-outs that look alike come from different tables or passages of the source.

How the values were obtained:
[1] = test system: cyclin K–eGFP degradation reporter; test: Cyclin K reporter stability analysis (dual-color cyclin K–eGFP reporter); assay type: cell-based, human; conditions: source data sheet correlations; read-out: DC50
Procedure, shortened: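 Values reflect cyclin K–eGFP levels after a 5 h exposure, expressed as the green-to-red fluorescence ratio and scaled to three vehicle-treated controls. Measurements came from HEK293T–Cas9 reporter cells by flow cytometry.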

[2] = target: T1, CDK12–cyclin K and DDB1 (Homo sapiens, UniProt Q16531+Q9NYV4, K965R); test: TR-FRET ternary complex formation assay (compound titration); assay type: binding; conditions: for TR-FRET signal at compound concentration 0.468 nM / TR-FRET signal at compound concentration 2.16 nM / TR-FRET signal at compound concentration 3.6 nM / TR-FRET signal at compound concentration 7.92001 nM / TR-FRET signal at compound concentration 15.84 nM / TR-FRET signal at compound concentration 30.96 nM / TR-FRET signal at compound concentration 62.6401 nM / TR-FRET signal at compound concentration 125.28 nM / TR-FRET signal at compound concentration 244.8 nM / TR-FRET signal at compound concentration 993.601 nM / TR-FRET signal at compound concentration 2001.6 nM: raw replicate titration data
T1 construct: His6–CDK12 (a.a. 713–1,052); full-length or beta-propeller B domain deletion (ΔBPB: a.a. 396–705 deleted) constructs of His6–DDB1ΔBPB, StrepII–Avi–DDB1, or His6–Spy–DDB1; made in house; host or cells: Trichoplusia ni High Five insect cells (baculovirus)
Procedure, shortened: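 A time delay of 70 μs preceded acquisition, limiting background fluorescence; the ratio of emission at 520 versus 490 nm gave the TR-FRET value.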

[3] = target: T2, CDK9–cyclin T (Homo sapiens, UniProt P50750); test: Lanthascreen kinase binding assay, CDK9; conditions: for IC50: Supplementary Table 2, read-out: Lanthascreen IC50 [nM] CDK9; for Lanthascreen TR-FRET signal (raw ratio), sheet CDK9: duplicates
T2 construct: purchased Thermo Fisher
Method: (§1) Lanthascreen experiments were performed using commercially available reagents (Thermo Fisher) and according to the manufacturer’s instructions.

[4] = target: T3, CDK2–cyclin A (Homo sapiens, UniProt P24941); test: Lanthascreen kinase binding assay, CDK2; conditions: for IC50: Supplementary Table 2, read-out: Lanthascreen IC50 [nM] CDK2
T3 construct: purchased Thermo Fisher
Method: as §1

[5] = in vitro complex formation, 50 nM CDK12–cyclin K, 100 nM DDB1, text and figures, read-out: TR-FRET EC50
[6] = source data sheet correlations, read-out: TR-FRET EC50

T2 sequence (P50750 whole entry): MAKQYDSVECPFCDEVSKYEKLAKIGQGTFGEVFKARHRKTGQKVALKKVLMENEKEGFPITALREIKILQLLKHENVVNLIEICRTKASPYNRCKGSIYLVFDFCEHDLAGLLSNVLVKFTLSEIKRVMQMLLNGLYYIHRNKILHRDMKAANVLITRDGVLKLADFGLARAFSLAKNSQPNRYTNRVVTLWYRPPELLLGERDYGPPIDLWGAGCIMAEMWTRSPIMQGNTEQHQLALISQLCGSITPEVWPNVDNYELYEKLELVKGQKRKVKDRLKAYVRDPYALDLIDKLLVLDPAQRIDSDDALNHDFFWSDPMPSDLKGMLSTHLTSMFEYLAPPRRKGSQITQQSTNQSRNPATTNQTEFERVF
T2 sequence (O60563 whole entry partner): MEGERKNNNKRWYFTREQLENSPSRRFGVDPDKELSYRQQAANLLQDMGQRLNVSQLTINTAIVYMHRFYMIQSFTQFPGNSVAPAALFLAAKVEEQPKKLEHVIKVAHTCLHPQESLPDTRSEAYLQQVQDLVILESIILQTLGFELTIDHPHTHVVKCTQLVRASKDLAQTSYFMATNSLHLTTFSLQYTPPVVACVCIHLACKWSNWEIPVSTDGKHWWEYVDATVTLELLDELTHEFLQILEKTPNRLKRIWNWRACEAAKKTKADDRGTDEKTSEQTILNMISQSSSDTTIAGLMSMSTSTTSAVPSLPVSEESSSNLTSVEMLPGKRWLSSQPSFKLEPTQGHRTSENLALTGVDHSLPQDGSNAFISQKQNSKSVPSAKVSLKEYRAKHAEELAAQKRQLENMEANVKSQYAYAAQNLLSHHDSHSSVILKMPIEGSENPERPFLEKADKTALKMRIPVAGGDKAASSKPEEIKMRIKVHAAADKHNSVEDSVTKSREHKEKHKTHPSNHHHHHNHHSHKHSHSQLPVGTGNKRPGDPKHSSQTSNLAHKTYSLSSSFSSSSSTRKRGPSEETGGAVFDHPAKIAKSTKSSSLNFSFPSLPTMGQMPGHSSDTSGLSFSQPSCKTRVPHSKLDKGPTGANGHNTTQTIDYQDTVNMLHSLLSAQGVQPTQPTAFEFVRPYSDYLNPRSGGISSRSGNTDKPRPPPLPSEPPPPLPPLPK
T1 sequence (Q9NYV4 713-1052 K965R): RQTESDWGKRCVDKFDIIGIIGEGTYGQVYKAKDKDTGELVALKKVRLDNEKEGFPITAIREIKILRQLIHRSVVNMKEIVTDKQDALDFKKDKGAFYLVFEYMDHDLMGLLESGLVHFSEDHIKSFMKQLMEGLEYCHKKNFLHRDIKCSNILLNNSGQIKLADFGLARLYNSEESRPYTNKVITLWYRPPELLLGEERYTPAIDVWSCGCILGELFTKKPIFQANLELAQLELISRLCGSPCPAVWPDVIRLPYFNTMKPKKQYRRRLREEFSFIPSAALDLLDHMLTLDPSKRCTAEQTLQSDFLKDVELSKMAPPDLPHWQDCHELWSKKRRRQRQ
T1 sequence (O75909 1-267 partner): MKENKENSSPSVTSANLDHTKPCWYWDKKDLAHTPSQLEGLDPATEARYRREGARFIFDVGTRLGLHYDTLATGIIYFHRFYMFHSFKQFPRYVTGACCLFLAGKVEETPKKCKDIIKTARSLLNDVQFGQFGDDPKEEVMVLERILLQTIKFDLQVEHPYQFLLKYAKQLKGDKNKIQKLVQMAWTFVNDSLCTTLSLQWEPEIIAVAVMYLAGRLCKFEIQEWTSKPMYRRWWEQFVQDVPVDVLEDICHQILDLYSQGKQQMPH
T1 sequence (Q16531 whole entry): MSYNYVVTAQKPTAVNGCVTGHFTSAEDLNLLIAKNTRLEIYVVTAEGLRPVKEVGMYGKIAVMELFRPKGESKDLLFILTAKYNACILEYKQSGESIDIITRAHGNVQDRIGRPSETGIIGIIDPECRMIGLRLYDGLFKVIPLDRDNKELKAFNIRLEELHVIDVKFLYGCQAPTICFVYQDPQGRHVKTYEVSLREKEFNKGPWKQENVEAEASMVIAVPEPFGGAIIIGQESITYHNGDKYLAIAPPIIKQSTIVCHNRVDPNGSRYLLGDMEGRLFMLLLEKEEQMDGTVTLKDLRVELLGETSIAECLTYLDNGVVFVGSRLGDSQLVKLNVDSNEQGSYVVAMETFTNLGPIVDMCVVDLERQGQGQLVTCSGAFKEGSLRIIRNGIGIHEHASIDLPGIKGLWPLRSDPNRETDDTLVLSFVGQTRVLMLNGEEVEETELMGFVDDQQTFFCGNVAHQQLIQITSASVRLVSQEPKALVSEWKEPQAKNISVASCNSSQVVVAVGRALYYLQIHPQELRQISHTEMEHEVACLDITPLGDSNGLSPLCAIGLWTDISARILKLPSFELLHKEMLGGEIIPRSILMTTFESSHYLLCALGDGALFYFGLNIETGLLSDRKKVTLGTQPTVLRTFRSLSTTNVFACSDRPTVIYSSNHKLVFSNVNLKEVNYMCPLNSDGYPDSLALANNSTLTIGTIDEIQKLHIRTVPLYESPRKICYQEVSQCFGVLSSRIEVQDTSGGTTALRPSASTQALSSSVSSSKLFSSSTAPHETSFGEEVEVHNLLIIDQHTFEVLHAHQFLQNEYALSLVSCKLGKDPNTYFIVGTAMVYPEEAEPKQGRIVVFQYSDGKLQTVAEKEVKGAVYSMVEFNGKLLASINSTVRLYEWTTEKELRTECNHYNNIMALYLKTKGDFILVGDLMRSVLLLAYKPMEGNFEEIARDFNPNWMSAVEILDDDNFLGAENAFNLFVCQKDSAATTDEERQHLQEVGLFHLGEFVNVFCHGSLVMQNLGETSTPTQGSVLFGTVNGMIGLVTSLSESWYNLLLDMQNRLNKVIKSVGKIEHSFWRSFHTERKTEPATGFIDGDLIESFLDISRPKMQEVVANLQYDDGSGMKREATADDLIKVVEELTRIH

CC[C@H](CO)Nc1nc(NCc2nc3cc(Cl)c(Cl)cc3[nH]2)c2ncn(C(C)C)c2n1 [DS17]
DC50 [1]: 12 nM | TR-FRET signal at compound concentration 0.468 nM [2]: 0.2691 and 0.2681 and 0.2563 and 0.2452 | TR-FRET signal at compound concentration 2.16 nM [2]: 0.3644 and 0.3794 and 0.3582 and 0.3855 | TR-FRET signal at compound concentration 3.6 nM [2]: 0.5749 and 0.6382 and 0.6238 and 0.6481 | TR-FRET signal at compound concentration 7.92001 nM [2]: 1.103 and 1.253 and 1.275 and 1.336 | TR-FRET signal at compound concentration 15.84 nM [2]: 2.342 and 2.592 and 2.673 and 2.949 | TR-FRET signal at compound concentration 30.96 nM [2]: 3.985 and 4.064 and 4.264 and 4.269 | TR-FRET signal at compound concentration 62.6401 nM [2]: 4.135 and 4.141 and 4.254 and 4.343 | TR-FRET signal at compound concentration 125.28 nM [2]: 4.238 and 4.311 and 4.291 and 4.347 | TR-FRET signal at compound concentration 244.8 nM [2]: 4.1978 and 4.255 and 4.25 and 4.345 | TR-FRET signal at compound concentration 993.601 nM [2]: 4.229 and 4.264 and 4.321 and 4.299 | TR-FRET signal at compound concentration 2001.6 nM [2]: 4.223 and 4.116 and 4.3288 and 4.427 | EC50 [2, 5]: 13 ± 0.3 nM | EC50 ([2]; sheet MOESM7, read-out: log TR-FRET EC50 (converted)): 13.2 nM | EC50 [2, 6]: 13.2 nM | IC50 [3]: 3060 nM | Lanthascreen TR-FRET signal (raw ratio), sheet CDK9 ([3]; compound 0.038147 nM, third titration set (r25)): 0.02187 and 0.01792 | Lanthascreen TR-FRET signal (raw ratio), sheet CDK9 ([3]; compound 0.152588 nM, third titration set (r25)): 0.02168 and 0.01994 | Lanthascreen TR-FRET signal (raw ratio), sheet CDK9 ([3]; compound 0.610352 nM, third titration set (r25)): 0.0196 and 0.01929 | Lanthascreen TR-FRET signal (raw ratio), sheet CDK9 ([3]; compound 9.76563 nM, third titration set (r25)): 0.02026 and 0.01917 | Lanthascreen TR-FRET signal (raw ratio), sheet CDK9 ([3]; compound 39.0625 nM, third titration set (r25)): 0.02086 and 0.01978 | Lanthascreen TR-FRET signal (raw ratio), sheet CDK9 ([3]; compound 156.25 nM, third titration set (r25)): 0.01948 and 0.0176 | Lanthascreen TR-FRET signal (raw ratio), sheet CDK9 ([3]; compound 625 nM, third titration set (r25)): 0.01695 and 0.01459 | Lanthascreen TR-FRET signal (raw ratio), sheet CDK9 ([3]; compound 2500 nM, third titration set (r25)): 0.01153 and 0.01174 | Lanthascreen TR-FRET signal (raw ratio), sheet CDK9 ([3]; compound 10000 nM, third titration set (r25)): 0.006855 and 0.006128 | Lanthascreen signal, sheet CDK2 ([4]; Compound 0.038147 nM, raw replicates, experiment r36-r46): 0.01335 and 0.01346 | Lanthascreen signal, sheet CDK2 ([4]; Compound 0.152588 nM, raw replicates, experiment r36-r46): 0.01372 and 0.01373 | Lanthascreen signal, sheet CDK2 ([4]; Compound 0.610352 nM, raw replicates, experiment r36-r46): 0.01335 and 0.01333 | Lanthascreen signal, sheet CDK2 ([4]; Compound 9.76563 nM, raw replicates, experiment r36-r46): 0.01387 and 0.01379 | Lanthascreen signal, sheet CDK2 ([4]; Compound 39.0625 nM, raw replicates, experiment r36-r46): 0.01306 and 0.01354 | Lanthascreen signal, sheet CDK2 ([4]; Compound 156.25 nM, raw replicates, experiment r36-r46): 0.01303 and 0.01259 | Lanthascreen signal, sheet CDK2 ([4]; Compound 625 nM, raw replicates, experiment r36-r46): 0.01178 and 0.01167 | Lanthascreen signal, sheet CDK2 ([4]; Compound 2500 nM, raw replicates, experiment r36-r46): 0.01002 and 0.01073 | Lanthascreen signal, sheet CDK2 ([4]; Compound 10000 nM, raw replicates, experiment r36-r46): 0.0065 and 0.006945 | IC50 [4]: 10300 nM

Cc1cc2nc(CNc3nc(N4CCN(C)CC4)nc4c(Br)cnn34)[nH]c2cc1C [DS73, reference compound]
DC50 [1]: 1 nM | TR-FRET signal at compound concentration 0.468 nM [2]: 0.2078 and 0.3464 and 0.3268 and 0.2028 | TR-FRET signal at compound concentration 2.16 nM [2]: 0.3181 and 0.4574 and 0.408 and 0.306 | TR-FRET signal at compound concentration 3.6 nM [2]: 0.571 and 0.665 and 0.6145 and 0.5357 | TR-FRET signal at compound concentration 7.92001 nM [2]: 1.164 and 1.12 and 0.9555 and 1.048 | TR-FRET signal at compound concentration 15.84 nM [2]: 2.581 and 2.125 and 1.889 and 2.1704 | TR-FRET signal at compound concentration 30.96 nM [2]: 3.773 and 3.741 and 3.496 and 3.714 | TR-FRET signal at compound concentration 62.6401 nM [2]: 3.949 and 4.21 and 4.046 and 3.965 | TR-FRET signal at compound concentration 125.28 nM [2]: 3.981 and 4.358 and 4.135 and 3.99 | TR-FRET signal at compound concentration 244.8 nM [2]: 3.942 and 4.1851 and 4.076 and 4.006 | TR-FRET signal at compound concentration 993.601 nM [2]: 4.043 and 4.296 and 4.229 and 3.955 | TR-FRET signal at compound concentration 2001.6 nM [2]: 4.148 and 4.166 and 4.035 and 3.981 | EC50 [2, 5]: 15 ± 1 nM | EC50 [2, 6]: 15.3 nM | IC50 [3]: 557 nM | Lanthascreen TR-FRET signal (raw ratio), sheet CDK9 ([3]; compound 1.02544 nM, first titration set (r1)): 0.01409 and 0.01452 | Lanthascreen TR-FRET signal (raw ratio), sheet CDK9 ([3]; compound 3.15521 nM, first titration set (r1)): 0.01533 and 0.01444 | Lanthascreen TR-FRET signal (raw ratio), sheet CDK9 ([3]; compound 9.46563 nM, first titration set (r1)): 0.01086 and 0.01492 | Lanthascreen TR-FRET signal (raw ratio), sheet CDK9 ([3]; compound 31.5521 nM, first titration set (r1)): 0.01278 and 0.01412 | Lanthascreen TR-FRET signal (raw ratio), sheet CDK9 ([3]; compound 99.3891 nM, first titration set (r1)): 0.01498 and 0.0129 | Lanthascreen TR-FRET signal (raw ratio), sheet CDK9 ([3]; compound 315.521 nM, first titration set (r1)): 0.01059 and 0.008471 | Lanthascreen TR-FRET signal (raw ratio), sheet CDK9 ([3]; compound 3155.21 nM, first titration set (r1)): 0.004926 and 0.00557 | Lanthascreen TR-FRET signal (raw ratio), sheet CDK9 ([3]; compound 10002 nM, first titration set (r1)): 0.002868 and 0.004276 | Lanthascreen signal, sheet CDK2 ([4]; Compound 1.02544 nM, raw replicates, experiment r1-r11): 0.01165 and 0.01109 | Lanthascreen signal, sheet CDK2 ([4]; Compound 3.15521 nM, raw replicates, experiment r1-r11): 0.008478 and 0.00993 | Lanthascreen signal, sheet CDK2 ([4]; Compound 4.57247 nM, experiment r25-r34): 0.01637 | Lanthascreen signal, sheet CDK2 ([4]; Compound 9.46563 nM, raw replicates, experiment r1-r11): 0.009994 and 0.009998 | Lanthascreen signal, sheet CDK2 ([4]; Compound 13.7174 nM, experiment r25-r34): 0.01615 | Lanthascreen signal, sheet CDK2 ([4]; Compound 31.5521 nM, raw replicates, experiment r1-r11): 0.01039 and 0.01091 | Lanthascreen signal, sheet CDK2 ([4]; Compound 41.1523 nM, experiment r25-r34): 0.01569 | Lanthascreen signal, sheet CDK2 ([4]; Compound 99.3891 nM, raw replicates, experiment r1-r11): 0.0115 and 0.01029 | Lanthascreen signal, sheet CDK2 ([4]; Compound 123.457 nM, experiment r25-r34): 0.01519 | Lanthascreen signal, sheet CDK2 ([4]; Compound 315.521 nM, raw replicates, experiment r1-r11): 0.008046 and 0.01008 | Lanthascreen signal, sheet CDK2 ([4]; Compound 370.37 nM, experiment r25-r34): 0.01387 | Lanthascreen signal, sheet CDK2 ([4]; Compound 3155.21 nM, raw replicates, experiment r1-r11): 0.007483 and 0.007205 | Lanthascreen signal, sheet CDK2 ([4]; Compound 3333.33 nM, experiment r25-r34): 0.009102 | Lanthascreen signal, sheet CDK2 ([4]; Compound 10000 nM, experiment r25-r34): 0.006383 | Lanthascreen signal, sheet CDK2 ([4]; Compound 10002 nM, raw replicates, experiment r1-r11): 0.003415 and 0.004039 | IC50 [4]: 6120 nM
